Measured values published in paper PMC10052652 (Molecules, 2023).
Where two headings read alike, the source gives them in different places.

Legend:
[1] = DPPH radical scavenging assay
Procedure: DPPH• (1-1-diphenyl 2-picryl hydrazyl) assay
This method is based on the spectrophotometric assay using the stable radical, DPPH•, as a reagent. First, 20 µL of each sample (4 mg/mL) was mixed with 180 µL of 0.1 mM DPPH• in methanol, in plates, after an incubation of 25 min in the dark. Absorbance was measured at 517 nm. Ascorbic acid was used as the reference compound. The radical-scavenging activities of molecules, expressed as a percentage inhibition of DPPH•, were calculated according to the following formula: Inhibition (%) = [(A control − A sample)/A control] × 100 where A is the absorbance determined at 517 nm. The absorbance of the solvent and DPPH• radical without the molecule was measured as the control.

[2] = ABTS radical cation scavenging assay; details: for ABTS Assay %: at 100 µM
Procedure: ABTS (2,2′-azinobis-3-ethylbenzothiazoline-6-sulfonate) assay
The radical scavenging capacity of antioxidants for the ABTS radical cation was evaluated following this method: ABTS was prepared by adding 7 mM solution of ABTS at pH 7.4 (5 mM NaH2PO4, 5 mM Na2HPO4, and 154 mM NaCl) with 2.5 mM potassium persulfate. The mixture was stored at room temperature for 16 h in the dark before use and prepared […]. Once diluted with persulfate buffer, the absorbance of the mixture yielded an absorbance value of 0.70 ± 0.05 units at 734 nm. Then, 20 µL of each tested sample was mixed with fresh ABTS solution (180 µL), then the absorbance was measured 6 min after the initial mixing. Ascorbic acid was used as a standard. The capacity of free radical scavenging was expressed as a percentage of the inhibition values. The percentage of inhibition is calculated using the same expression employed in the DPPH assay.

[3] = target: T1, acetylcholinesterase (AChE) (Homo sapiens, UniProt P22303); assay: biochemical
Procedure: The enzymatic activity was assessed via a modified colorimetric Ellman′s method. First, 50 µL of Tris-HCl buffer (pH 8), 25µL of a buffer solution of the sample (50 µg/mL), and 25 µL of an acetylcholinesterase (AChE) enzyme solution containing 2.8 U/mL were mixed. A reaction was then initiated via the addition of 125 µL of 3 mM […]. After incubation for 15 min at 25 °C, 25 µL of a solution of iodide acetylthiocholine15 mM was added to a 96-well microplate. […] Inhibition (%) was calculated in the following way: Inhibition (%) = [(A control − A sample)/A control] × 100, where (A sample) is the absorbance of the molecule containing the reaction and (A control) is the absorbance of the reaction control. Tests were carried out in triplicate.

[4] = target: T2, superoxide dismutase (SOD) (Homo sapiens, UniProt P00441); assay: biochemical; details: read-out: Anti SOD IC50
Procedure: Pyrogallol auto-oxidation due to oxygen in the air can be inhibited by an enzyme that is naturally present in the body: superoxide dismutase (SOD). Furthermore, variations in the pyrogallol auto-oxidation rate in the presence of SOD were evaluated. Tests were carried out in triplicate. The objective was to find an inhibitor of the auto-oxidation of pyrogallol in the presence of a SOD enzyme solution. Samples were tested at a concentration of 50 µg/mL, followed by incubation for 4 min at 25 °C. […] The self-oxidation of pyrogallol was evaluated in the absence of the enzyme. For this, 30 µL of pyrogallol was added to 120 µL of tris buffer (in place of the SOD) (pH 8.5), then followed by the same steps of incubating a positive control (without the molecule); this was performed in the presence of 5% of DMSO to evaluate the percentage of SOD inhibition activity on the auto-oxidation of pyrogallol.

xanthine oxidase (XOD) [5] = target: T3, xanthine oxidase (XOD) (Homo sapiens, UniProt P47989); assay: biochemical; details: read-out: Anti XOD IC50
Procedure: Anti-xanthine oxidase activity was assayed spectrophotometrically under aerobic conditions. First, 50 µL (50 µg/mL) of samples were added to 60 µL of phosphate buffer (pH 7.5) and 30 µL of xanthine oxidase enzyme solution (0.01 units/mL in phosphate buffer; pH 7.5). After pre-incubation at 25 °C for 15 min, the reaction was initiated by the addition of 60 µL of xanthine substrate solution (prepared in the same buffer). The assay mixture was incubated at 25 °C for 5 min. […] The assay was performed in triplicate. […] Tests were carried out in triplicate.

HCT116 cells = assay: Cytotoxic activity, MTT assay, HCT116; assay type: cell-based, human; details: Homo sapiens, HCT-116, 72 h, read-out: IC50 HCT116, MTT, 72 h
Procedure: (§1) The cancer cell lines used in this study were HCT116 (colorectal carcinoma), IGROV1 (ovarian cancer), OVCAR3 (ovarian cancer), and MCF7 (mammary gland/breast cancer). […] Cell lines were maintained in culture and were incubated at 37 °C in an incubator with 5% CO2 in a humidified atmosphere. All tests were established at 80% of confluence, and viability was estimated with a trypan blue exclusion assay.
(§2) The cytotoxic activities of molecules against cancer cell lines were evaluated using an MTT assay. The MTT colorimetric assay was performed using 96-well plates. Cells were seeded in a 96-well plate, at a concentration of 10 × 10^3 cells/well for HCT116 and 12 × 10^3 cells/well for MCF7, IGROV1, and OVAR. Adherent cells were dispatched and incubated at 37 °C overnight in a 5% CO2-enriched atmosphere. […] After that, the medium was removed, and cells were treated with 50 µL of 3-(4,5-dimethylthazolk-2-yl)-2,5-diphenyl tetrazolium bromide (MTT) solution (3 mg/mL in PBS) at 37 °C for 20 to 40 min. To dissolve the […], we added 80 µL of 100% DMSO. Optical density was measured at 540 nm. All tests were established in triplicate. […]

MCF7 cells = assay: Cytotoxic activity, MTT assay, MCF7; assay type: cell-based, human; details: Homo sapiens, MCF7, 72 h
Procedure: Optical density was measured at 540 nm. All tests were established in triplicate.

OVCAR-3 cells = assay: Cytotoxic activity, MTT assay, OVCAR-3; assay type: cell-based; details: Homo sapiens, OVCAR-3, 72 h, read-out: IC50 OVCAR-3
Procedure: as §1, §2

SKOV-3 cells = assay: Cytotoxic activity, MTT assay, SKOV-3; assay type: cell-based, human
[6] = target: T1, acetylcholinesterase (AChE); assay type: biochemical; details: at 100 µM
[7] = target: T2, superoxide dismutase (SOD); assay type: biochemical; details: at 100 µM
α-amylase = target: T4, α-amylase (Homo sapiens, UniProt P04746); assay: Anti-α-amylase activity (starch/DNS); details: for Anti α-Amylase %: at 100 µM
T4 sequence (P04746 16-511): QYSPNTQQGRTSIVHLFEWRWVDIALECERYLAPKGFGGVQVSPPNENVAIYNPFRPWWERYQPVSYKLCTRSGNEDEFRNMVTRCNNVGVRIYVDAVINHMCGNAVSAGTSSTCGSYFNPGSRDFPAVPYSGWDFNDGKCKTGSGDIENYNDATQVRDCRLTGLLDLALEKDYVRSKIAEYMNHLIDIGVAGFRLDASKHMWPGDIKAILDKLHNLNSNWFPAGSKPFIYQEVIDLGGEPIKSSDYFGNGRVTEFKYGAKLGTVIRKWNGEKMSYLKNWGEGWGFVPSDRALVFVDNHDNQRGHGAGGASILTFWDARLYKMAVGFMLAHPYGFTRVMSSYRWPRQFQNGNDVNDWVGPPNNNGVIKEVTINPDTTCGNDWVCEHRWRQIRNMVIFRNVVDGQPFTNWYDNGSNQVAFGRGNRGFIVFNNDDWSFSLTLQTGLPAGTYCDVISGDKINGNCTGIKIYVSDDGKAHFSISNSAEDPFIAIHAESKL
Procedure: The α-amylase inhibitory activity (%) value was defined as the percentage decrease in the maltose production rate over the control. […] After 15 min, this mixture was removed from the water bath and diluted with 900 µL of distilled water. The anti-α-amylase activity was determined by measuring the absorbance at 540 nm. Blank incubations were determined as the absorbance produced by samples where the enzyme was replaced with a buffer solution. […] The IC50 values were calculated from the mean values of the percentage of α--amylase inhibition data, determined in triplicate.

xanthine oxidase (XOD) [8] = target: T3, xanthine oxidase (XOD); assay type: biochemical; details: at 100 µM
[9] = Homo sapiens, SK-OV-3, 72 h, read-out: IC50 SKOV-3, MTT, 72 h

T1 sequence (P22303 32-614, species assumed): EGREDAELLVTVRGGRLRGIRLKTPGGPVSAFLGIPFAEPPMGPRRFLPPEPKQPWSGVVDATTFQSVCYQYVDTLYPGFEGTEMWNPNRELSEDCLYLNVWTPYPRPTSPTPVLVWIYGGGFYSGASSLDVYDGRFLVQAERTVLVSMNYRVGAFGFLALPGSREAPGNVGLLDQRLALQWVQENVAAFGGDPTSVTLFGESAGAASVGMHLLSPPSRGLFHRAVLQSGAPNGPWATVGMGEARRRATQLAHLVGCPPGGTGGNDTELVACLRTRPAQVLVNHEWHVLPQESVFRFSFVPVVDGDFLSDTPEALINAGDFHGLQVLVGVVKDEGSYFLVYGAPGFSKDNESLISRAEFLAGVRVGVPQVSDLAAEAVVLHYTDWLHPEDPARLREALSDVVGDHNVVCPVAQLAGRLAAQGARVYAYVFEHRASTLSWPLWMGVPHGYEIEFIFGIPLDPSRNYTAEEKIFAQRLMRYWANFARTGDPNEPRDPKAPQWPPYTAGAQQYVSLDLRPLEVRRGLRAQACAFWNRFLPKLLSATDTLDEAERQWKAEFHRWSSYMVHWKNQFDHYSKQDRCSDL
T3 sequence (P47989 whole entry, species assumed): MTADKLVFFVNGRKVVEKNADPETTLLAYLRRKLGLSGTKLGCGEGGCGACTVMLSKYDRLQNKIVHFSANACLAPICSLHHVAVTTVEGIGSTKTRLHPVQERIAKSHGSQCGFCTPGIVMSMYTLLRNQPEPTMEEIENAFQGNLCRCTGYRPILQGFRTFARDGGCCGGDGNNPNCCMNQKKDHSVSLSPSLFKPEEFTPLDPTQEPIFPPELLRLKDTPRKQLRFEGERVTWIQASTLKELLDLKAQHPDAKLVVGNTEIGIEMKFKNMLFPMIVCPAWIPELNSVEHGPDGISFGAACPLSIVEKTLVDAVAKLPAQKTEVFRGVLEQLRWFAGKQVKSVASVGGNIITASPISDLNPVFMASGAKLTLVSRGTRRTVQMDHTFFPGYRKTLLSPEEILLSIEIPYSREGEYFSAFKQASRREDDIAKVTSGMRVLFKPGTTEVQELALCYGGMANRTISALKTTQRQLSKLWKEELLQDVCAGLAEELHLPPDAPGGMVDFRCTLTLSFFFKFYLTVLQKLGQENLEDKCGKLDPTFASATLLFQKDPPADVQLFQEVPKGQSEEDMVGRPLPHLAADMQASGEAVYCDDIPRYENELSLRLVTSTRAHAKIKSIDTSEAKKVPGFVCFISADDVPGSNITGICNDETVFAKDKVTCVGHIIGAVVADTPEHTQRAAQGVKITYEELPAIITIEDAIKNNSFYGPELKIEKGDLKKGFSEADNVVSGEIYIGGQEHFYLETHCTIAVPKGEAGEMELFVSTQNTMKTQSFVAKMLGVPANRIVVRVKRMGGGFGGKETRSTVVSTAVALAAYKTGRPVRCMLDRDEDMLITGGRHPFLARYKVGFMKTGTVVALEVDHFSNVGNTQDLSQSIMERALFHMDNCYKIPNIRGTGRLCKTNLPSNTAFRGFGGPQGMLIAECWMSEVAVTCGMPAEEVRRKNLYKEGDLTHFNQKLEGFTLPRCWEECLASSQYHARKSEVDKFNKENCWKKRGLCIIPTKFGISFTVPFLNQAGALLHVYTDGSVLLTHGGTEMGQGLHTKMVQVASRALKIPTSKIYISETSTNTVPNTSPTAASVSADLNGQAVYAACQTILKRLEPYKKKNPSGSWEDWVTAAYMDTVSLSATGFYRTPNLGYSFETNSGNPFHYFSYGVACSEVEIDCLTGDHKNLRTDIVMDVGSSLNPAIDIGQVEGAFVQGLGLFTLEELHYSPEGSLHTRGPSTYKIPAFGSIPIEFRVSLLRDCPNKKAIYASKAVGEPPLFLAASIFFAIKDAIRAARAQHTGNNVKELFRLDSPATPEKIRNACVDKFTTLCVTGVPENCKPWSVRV
T2 sequence (P00441 whole entry): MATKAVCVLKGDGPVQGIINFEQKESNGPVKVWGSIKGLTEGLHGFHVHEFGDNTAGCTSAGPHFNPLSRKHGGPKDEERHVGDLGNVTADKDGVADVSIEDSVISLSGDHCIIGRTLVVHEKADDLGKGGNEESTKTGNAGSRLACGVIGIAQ

Row | Structure (SMILES) | IC50 [1] [µM] | IC50 [2] [µM] | ABTS Assay % [2] [%] | IC50 ([3]; read-out: Anti ACHE IC50) [µM] | IC50 [4] [µM] | IC50 (xanthine oxidase (XOD) [5]) [µM] | IC50 (HCT116 cells) [µM] | IC50 (MCF7 cells) [µM] | IC50 (OVCAR-3 cells) [µM] | IC50 (SKOV-3 cells; [9]) [µM] | Anti ACHE % [6] [%] | Anti SOD % [7] [%] | IC50 (α-amylase) [µM] | Anti α-Amylase % (α-amylase) [%] | IC50 [3] [µM] | Anti XOD % (xanthine oxidase (XOD) [8]) [%] | IC50 (SKOV-3 cells; read-out: IC50 SKOV-3, MTT, 72 h) [µM]
1 | Cc1cccc(COc2cc(O)c3c(=O)cc(-c4ccccc4)oc3c2)c1 [Molecule M15, 5-hydroxy-7-((3-methylbenzyl)oxy)-2-phenyl-4h-chromen-4-one] | > 100 | > 100 | 25.6 ± 0.7 | > 50 | > 100 | > 100 | > 50 | > 50 | 45.6 ± 1.4 | > 50 | 55.3 ± 2.7 | 26.5 ± 3.3 | > 100 | 46.2 ± 4.4 |  |  | 
2 | COc1cc(O)c2c(=O)cc(-c3ccc(O)cc3)oc2c1 [Molecule M12, 4′,5-dihydroxy-7-methoxyflavone] | > 100 | > 100 | 30.3 ± 0.6 |  | > 100 | 1.2 ± 0.1 | 38.5 ± 1.2 | > 50 | 47 ± 1.4 | 44.7 ± 1.2 | 51.0 ± 0.3 | 42.1 ± 5.3 | 9 ± 0.1 | 111.7 ± 0.8 | > 50 | 58.2 ± 3.1 | 
3 | COc1cccc(-c2cc(=O)c3c(O)cccc3o2)c1 [Molecule M11, 5-hydroxy-3′-methoxyflavone] | > 100 | > 100 | 17.7 ± 0.7 | > 50 | > 100 | > 100 | > 50 | > 100 | > 50 | > 100 | 52.6 ± 4.2 | 9.4 ± 3.1 | 8.3 ± 0.2 | 124.8 ± 15.3 |  |  | > 50
4 | Cc1ccc2oc(-c3cccc(O)c3)cc(=O)c2c1 [Molecule M16, 3′-hydroxy-6-methylflavone] | > 100 | > 50 |  | > 50 | > 100 | 2 ± 0.1 | > 100 | > 100 | > 50 | 42.1 ± 1.5 | 59.1 ± 1.5 | 27.3 ± 3.2 | > 100 |  |  | 83.5 ± 3.8 | 
